Results on 3 compounds are retold here after patent EP0009728A1, “Hemostatic and platelet increasing agent containing alpha, beta-diaminopropionic acid and derivatives thereof” (Hokuriku Pharmaceutical Co.,Ltd, priority 1978, dated 1980).

Each structure is given as a SMILES string.

Series [1] deals with platelet. The experiment in a line: Platelet-increasing activity (platelet count, Fonio direct method). The format is in vivo, mice. The conditions noted are these: for increase of the number of platelet versus control: 1 mg/0.5 ml./body i.p., 10 mins. after administration, versus Ringer-Locke control. The procedure: Platelet-Increasing Activity: • The compound having the formula shown in Example 1 was intraperitoneously administered to ddY female ten(10) mice as one grouping at the dose of 1 mg/0.5 ml./body in the form of a Ringer-Locke solution (1 mg. of the compound was dissolved in a Ringer-Locke solution). One eyeball was isolated 10 mins. after the administration to bleed. Blood was collected and the number of platelet was measured according to a direct method (Fonio original method), details of which are described in Dsch. Z. Schr. Chir., vol. 117, page 176 (1912).
As a control group, a Ringer-Locke solution was intraperitoneously administered at the dose of 0.5 ml/body for comparison.
Activity on Platelet-Increase: • The procedure similar to Example 3 was repeated except that the compound of Example 3 was used instead of the compound of Example 1.

Series [2] deals with Male mice. In words: Hemostatic test (bleeding time after wounding the tail vein). The format is in vivo. The note with it: for Bleeding Time (mean±S.E.) After Administration / Shortened Time (mean±S.E.) / Shortened Rate: Table 7; for Bleeding Time (mean±S.E.) After Administration / Shortened Time (mean±S.E.): mean of five tests, dose not stated; for Shortened Rate: shortened time relative to bleeding time before administration; for rate of shortening bleeding time (shortened rate): summary in the description. On the procedure:
The present invention will be described in more detail with reference to the examples below, in which hemostatic test was performed as follows:
Male mice weighing 15 to 20 g. were intraperitoneously given with 0.5 ml. of a Locke solution. The mice-.were holded on a mouse holder 10 minutes after the administration, where the left vein of the tail at the middle of the tail (3 to 4 cm. from the root of the tail) was wounded with a knife to bleed. A filter paper was softly touched with the incised wound at the interval of 30 seconds and observation was made if blood was transferred onto the filter paper. Time until blood was not transferred onto the filter paper was measured and was made a bleeding time for control
Subsequently, a test compound dissolved in 0.5 ml. of a Locke solution was intraperitoneously administered to the same mice. The mice were holded onto a mouse holder 10 minutes after the administration. The right vein at the middle of the tail was wounded with a knife and a bleeding time was measured as in control described above.
A difference in bleeding time between the control and the test compound was made a shortened time for bleed-stopping.

Series [3] is described as follows: Toxicity / neurotoxic activity (no method described).

On to `NC[C@H](N)C(=O)O` [α,β-diaminopro-pionic acid, L-α, β-diaminopropionic acid], for which the “increase of the number of platelet as compared to a control” value in series [1] (dose not stated) is given as “about 17%”. In addition, in series [2], the “Bleeding Time (mean±S.E.) After Administration” value was 306 ± 37 s, the “Shortened Time (mean±S.E.)” value came out at 240±33 p<0.05 second, the “Shortened Rate” value was 43.96% and the “rate of shortening bleeding time (shortened rate)” value (from here on “rate of shortening bleeding time”) turned out to be 44%. Besides, the “toxicity relative to that of the oxalyl derivative” value in series [3] (compared with L-N-β-oxalyl-α, β-diaminopropionic acid) is given as “about 1/5”.

Regarding `N[C@H](CNC(=O)C(=O)O)C(=O)O` [Compound of Example 3, D-N-β-Oxalyl- α, β -diaminopropionic acid], the “increase of the number of platelet versus control” value in series [1] (ddY female mice) is reported as roughly 24%. For the same compound, in series [1] (Table 6, same procedure as Table 4 (1 mg/0.5 ml./body i.p., ddY female mice)), the “Number of Platelet” value was 68.0 ± 7.35 10,000/mm^3. The “rate of shortening bleeding time” value in series [2] is 35%. In series [3], the “neurotoxic side effect / neurotoxic activity (in words)” value is listed as “slighter in neurotoxic activity”.

`N[C@@H](CNC(=O)C(=O)O)C(=O)O` [compound of Example 1, L-N-β-oxalyl-α,β-diaminopropionic acid]: in series [1] (ddY female mice), the “increase of the number of platelet versus control” value was “about 30%”. For the same compound, in series [1] (Table 4, 1 mg/0.5 ml./body i.p. in Ringer-Locke solution, ddY female mice, 10 per group, blood 10 mins. after administration), the “Number of Platelet” value was 69.6 ± 6.31 10,000/mm^3. For the same compound, in series [2], the “Bleeding Time (mean±S.E.) After Administration” value amounted to 354 ± 45 s, the “Shortened Time (mean±S.E.)” value came to 192 ± 36 s, the “Shortened Rate” value is listed as 35.16% and the “rate of shortening bleeding time” value worked out at 35%. Besides, the “neurotoxic side effect / neurotoxic activity (in words)” value in series [3] was “does not exhibit neurotoxic side effect”.
